In patent US20220281848A1, “PYRAZOLE-SUBSTITUTED PYRROLIDINONES AS HERBICIDES” (FMC Corporation, priority 2019, published 2022):

Assays:
Assay type in all cases: in vivo
[1] = test system: corn (Zea mays, ZEAMX); assay: Test A pre-emergence, corn; conditions: after 13 d
Procedure, shortened: (§1)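 Damage rated 0–100 (100 = total) 13 d after spraying. Application was one day post-sowing at 15.625, 62.5 or 250 g/ha, formulated in 50:50 acetone/water plus 0.5% Tween 20. Pots held in glasshouse at 24/16 °C day/night, 14 h light, 65% humidity, watered twice daily.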

[2] = test system: giant foxtail (Setaria faberi, SETFA); assay: Test A pre-emergence, giant foxtail; conditions: after 13 d
Procedure, shortened: as §1

[3] = test system: barnyardgrass (Echinochloa crus-galli, ECHCG); assay: Test A pre-emergence, barnyardgrass; conditions: after 13 d
Procedure, shortened: as §1

[4] = test system: ivy-leaved morning glory (Ipomoea hederacea, IPOHE); assay: Test A pre-emergence, ivy-leaved morning glory; conditions: after 13 d
Procedure, shortened: as §1

[5] = test system: redroot pigweed (Amaranthus retroflexus, AMARE); assay: Test A pre-emergence, redroot pigweed; conditions: after 13 d
Procedure, shortened: as §1

[6] = test system: corn (Zea mays, ZEAMX); assay: Test A post-emergence, corn; conditions: after 13 d
Procedure, shortened: (§2)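 Foliar application to 8-day-old seedlings at 15.625, 62.5 or 250 g/ha; phytotoxicity scored 0–100 after 13 d.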

[7] = test system: giant foxtail (Setaria faberi, SETFA); assay: Test A post-emergence, giant foxtail; conditions: after 13 d
Procedure, shortened: as §2

[8] = test system: redroot pigweed (Amaranthus retroflexus, AMARE); assay: Test A post-emergence, redroot pigweed; conditions: after 13 d
Procedure, shortened: as §2

[9] = test system: velvetleaf (Abutilon theophrasti, ABUTH); assay: Test A post-emergence, velvetleaf; conditions: after 13 d
Procedure, shortened: as §2

[10] = test system: maize; assay: Test D post-emergence, maize seed treated with a herbicide safener
Procedure: A formulation containing 50 g/L of the test chemical was prepared by dissolving the active ingredient in a mixture of organic solvents and emulsifier, details of which are provided in the table. This formulation was then mixed with a small, variable amount of acetone to aid dissolution, before addition of a 0.2% v/v aqueous solution of an adjuvant, as the aqueous diluent, to form an aqueous spray solution which contains a predetermined concentration of the active ingredient.
This aqueous spray solution was then sprayed onto plants including maize and wheat that had been seed treated with a herbicide safener, after one day's cultivation (for pre-emergence) or after about 12 days' cultivation (for post-emergence). The plants were grown from seeds sown in standard soil, placed in a glasshouse under controlled conditions (at 24/18° C. or 20/16° C., day/night; 16 h light; 65% humidity). After spray application the plants were then grown in a glasshouse under the same conditions and watered twice daily. After 15 d for post-emergence and 20 DAA for pre-emergence the test was evaluated (100=total damage to plant; 0=no damage to plant).

| Compound | damage to plant (100=total damage; 0=no damage) ZEAMX ([1]; Pre-Emergence at 15.625 g/ha) | damage to plant (100=total damage; 0=no damage) ZEAMX ([1]; Pre-Emergence at 62.5 g/ha) | damage to plant (100=total damage; 0=no damage) ZEAMX ([1]; Pre-Emergence at 250 g/ha) | damage to plant (100=total damage; 0=no damage) SETFA ([2]; Pre-Emergence at 15.625 g/ha) | damage to plant (100=total damage; 0=no damage) SETFA ([2]; Pre-Emergence at 62.5 g/ha) | damage to plant (100=total damage; 0=no damage) SETFA ([2]; Pre-Emergence at 250 g/ha) | damage to plant (100=total damage; 0=no damage) ECHCG ([3]; Pre-Emergence at 15.625 g/ha) | damage to plant (100=total damage; 0=no damage) ECHCG ([3]; Pre-Emergence at 62.5 g/ha) | damage to plant (100=total damage; 0=no damage) ECHCG ([3]; Pre-Emergence at 250 g/ha) | damage to plant (100=total damage; 0=no damage) IPOHE ([4]; Pre-Emergence at 15.625 g/ha) | damage to plant (100=total damage; 0=no damage) IPOHE ([4]; Pre-Emergence at 62.5 g/ha) | damage to plant (100=total damage; 0=no damage) IPOHE ([4]; Pre-Emergence at 250 g/ha) | damage to plant (100=total damage; 0=no damage) AMARE ([5]; Pre-Emergence at 15.625 g/ha) | damage to plant (100=total damage; 0=no damage) AMARE ([5]; Pre-Emergence at 62.5 g/ha) | damage to plant (100=total damage; 0=no damage) AMARE ([5]; Pre-Emergence at 250 g/ha) | damage to plant (100=total damage; 0=no damage) ZEAMX ([6]; Post-Emergence at 15.625 g/ha) | damage to plant (100=total damage; 0=no damage) ZEAMX ([6]; Post-Emergence at 62.5 g/ha) | damage to plant (100=total damage; 0=no damage) ZEAMX ([6]; Post-Emergence at 250 g/ha) | damage to plant (100=total damage; 0=no damage) SETFA ([7]; Post-Emergence at 15.625 g/ha) | damage to plant (100=total damage; 0=no damage) SETFA ([7]; Post-Emergence at 62.5 g/ha) | also measured |
| --- | --- | --- | --- | --- | --- | --- | --- | --- | --- | --- | --- | --- | --- | --- | --- | --- | --- | --- | --- | --- | --- |
| CN1CC(c2cc(C(F)(F)F)n(C)n2)C(C(=O)Nc2ccc(F)cc2F)C1=O (racemic) [Compound 6] | 10 | 20 | 60 | 80 | 90 | 90 | 80 | 90 | 90 | 0 | 0 | 10 | 20 | 20 | 50 | 10 | 20 | 60 | 0 | 70 | damage to plant (100=total damage; 0=no damage) SETFA ([7]; Post-Emergence at 250 g/ha): 70; damage to plant (100=total damage; 0=no damage) AMARE ([8]; Post-Emergence at 15.625 g/ha): 0; damage to plant (100=total damage; 0=no damage) AMARE ([8]; Post-Emergence at 62.5 g/ha): 10; damage to plant (100=total damage; 0=no damage) AMARE ([8]; Post-Emergence at 250 g/ha): 10; damage to plant (100=total damage; 0=no damage) ABUTH ([9]; Post-Emergence at 15.625 g/ha): 60; damage to plant (100=total damage; 0=no damage) ABUTH ([9]; Post-Emergence at 62.5 g/ha): 70; damage to plant (100=total damage; 0=no damage) ABUTH ([9]; Post-Emergence at 250 g/ha): 60; damage to plant (100=total damage to plant; 0=no damage to plant), ZEAMX ([10]; rate 130, evaluated after 15 d): 0; damage to plant (100=total damage to plant; 0=no damage to plant), ZEAMX ([10]; rate 250, evaluated after 15 d): 10; damage to plant (100=total damage to plant; 0=no damage to plant), ZEAMX ([10]; rate 500, evaluated after 15 d): 20 |
| CN1CC(c2cc(C(F)(F)F)n(C)n2)C(C(=O)Nc2ccc(F)c(F)c2F)C1=O (racemic) [Compound 17] | 60 | 70 | 90 | 90 | 90 | 90 | 90 | 100 | 100 | 0 | 0 | 20 | 0 | 10 | 20 | 10 | 50 | 80 | 60 | 70 | damage to plant (100=total damage; 0=no damage) SETFA ([7]; Post-Emergence at 250 g/ha): 80; damage to plant (100=total damage; 0=no damage) AMARE ([8]; Post-Emergence at 15.625 g/ha): 0; damage to plant (100=total damage; 0=no damage) AMARE ([8]; Post-Emergence at 62.5 g/ha): 20; damage to plant (100=total damage; 0=no damage) AMARE ([8]; Post-Emergence at 250 g/ha): 50; damage to plant (100=total damage; 0=no damage) ABUTH ([9]; Post-Emergence at 15.625 g/ha): 0; damage to plant (100=total damage; 0=no damage) ABUTH ([9]; Post-Emergence at 62.5 g/ha): 0; damage to plant (100=total damage; 0=no damage) ABUTH ([9]; Post-Emergence at 250 g/ha): 0; damage to plant (100=total damage to plant; 0=no damage to plant), ZEAMX ([10]; rate 130, evaluated after 15 d): 0; damage to plant (100=total damage to plant; 0=no damage to plant), ZEAMX ([10]; rate 250, evaluated after 15 d): 0; damage to plant (100=total damage to plant; 0=no damage to plant), ZEAMX ([10]; rate 500, evaluated after 15 d): 0 |
| COc1c(F)cccc1NC(=O)C1C(=O)N(C)CC1c1cc(C(F)(F)F)n(C)n1 (racemic) [Compound 18] | 30 | 60 | 80 | 90 | 90 | 90 | 90 | 90 | 90 | 10 | 10 | 20 | 0 | 0 | 0 | 0 | 30 | 80 | 50 | 70 | damage to plant (100=total damage; 0=no damage) SETFA ([7]; Post-Emergence at 250 g/ha): 70; damage to plant (100=total damage; 0=no damage) AMARE ([8]; Post-Emergence at 15.625 g/ha): 0; damage to plant (100=total damage; 0=no damage) AMARE ([8]; Post-Emergence at 62.5 g/ha): 0; damage to plant (100=total damage; 0=no damage) AMARE ([8]; Post-Emergence at 250 g/ha): 0; damage to plant (100=total damage; 0=no damage) ABUTH ([9]; Post-Emergence at 15.625 g/ha): 0; damage to plant (100=total damage; 0=no damage) ABUTH ([9]; Post-Emergence at 62.5 g/ha): 0; damage to plant (100=total damage; 0=no damage) ABUTH ([9]; Post-Emergence at 250 g/ha): 0; damage to plant (100=total damage to plant; 0=no damage to plant), ZEAMX ([10]; rate 130, evaluated after 15 d): 0; damage to plant (100=total damage to plant; 0=no damage to plant), ZEAMX ([10]; rate 250, evaluated after 15 d): 0; damage to plant (100=total damage to plant; 0=no damage to plant), ZEAMX ([10]; rate 500, evaluated after 15 d): 10 |
| CN1CC(c2cc(C(F)(F)F)n(C)n2)C(C(=O)Nc2cccc(F)c2C(F)(F)F)C1=O (racemic) [Compound 19] | 0 | 0 | 20 | 80 | 90 | 90 | 70 | 90 | 90 | 0 | 0 | 10 | 0 | 0 | 0 | 0 | 0 | 10 | 70 | 70 | damage to plant (100=total damage; 0=no damage) SETFA ([7]; Post-Emergence at 250 g/ha): 80; damage to plant (100=total damage; 0=no damage) AMARE ([8]; Post-Emergence at 15.625 g/ha): 0; damage to plant (100=total damage; 0=no damage) AMARE ([8]; Post-Emergence at 62.5 g/ha): 0; damage to plant (100=total damage; 0=no damage) AMARE ([8]; Post-Emergence at 250 g/ha): 30; damage to plant (100=total damage; 0=no damage) ABUTH ([9]; Post-Emergence at 15.625 g/ha): 0; damage to plant (100=total damage; 0=no damage) ABUTH ([9]; Post-Emergence at 62.5 g/ha): 0; damage to plant (100=total damage; 0=no damage) ABUTH ([9]; Post-Emergence at 250 g/ha): 0; damage to plant (100=total damage to plant; 0=no damage to plant), ZEAMX ([10]; rate 130, evaluated after 15 d): 0; damage to plant (100=total damage to plant; 0=no damage to plant), ZEAMX ([10]; rate 250, evaluated after 15 d): 0; damage to plant (100=total damage to plant; 0=no damage to plant), ZEAMX ([10]; rate 500, evaluated after 15 d): 30 |
